Assay [1] concerns the target BRD4-BD12 (1-477) (Homo sapiens (Human), UniProt O60885). Put plainly: Alphascreen binding assay BRD4-BD12. The note with it: BRD4(1 2) H4; read-out: Biochemical activity (IC50 μM) BRD4(1 2) H4. A digest of the protocol:
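In this competition format, compounds displace a biotinylated tetra-acetyl H4 peptide from E. coli-expressed human BRD4 bromodomain constructs captured on nickel chelate beads. The reaction runs at pH 7.5 with 2 mM DTT and detergent for 1 h at room temperature before a 30 min bead step.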

The subject of assay [2] is MV-4-11 cells. In words: Oncology cell growth assay MV-4-11 (CellTiter Glo). The note with it: Homo sapiens, MV4-11, 72 h; read-out: Cell activity (IC50 μM) MV-4-11 3d-Growth. The format is cell-based. A digest of the protocol:
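Growth read by CellTiter Glo luminescence after 72 h compound treatment of MLL-AF4-bearing MV-4-11 cells (3000/well). Titration: 8 points, 1:3 steps, maximum 10 μM, 0.2% DMSO final. Data normalized to DMSO wells, four-parameter fit gives pIC50.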
In general terms: Cellular ATP, detected with luciferase, serves as a proxy for viable cell number.

In assay [3] the test system is bromodomain. Put plainly: at least one of the bromodomain cell assays of Example 57. The format is cell-based. The note with it: at least one of the bromodomain cell assays described in Example 57; read-out: IC50 in at least one of the bromodomain cell assays.

A word on the IC50: it is the concentration at which inhibition is half-maximal.

Consider `Cc1noc(C)c1-c1cnc2c(-c3cnn(CC(F)(F)F)c3)cn(CC3(F)CC=C(F)CC3)c2c1` (stereo not drawn) [P-0356, 4-[1-[(1,4-difluorocyclohex-3-en-1-yl)methyl]-3-[1-(2,2,2-trifluoroethyl)pyrazol-4-yl]pyrrolo[3,2-b]pyridin-6-yl]-3,5-dimethyl-isoxazole], for which the results for the IC50 in assay [1], in assay [2] and in assay [3] were less than 1 µM, less than 1 µM and less than 10000 nM, respectively.
As to `Cc1nnn(C)c1-c1cnc2c(-c3cnn(C(F)F)c3)cn(CC3CCC(F)(F)CC3)c2c1` [P-0357, 1-[(4,4-difluorocyclohexyl)methyl]-3-[1-(difluoromethyl)pyrazol-4-yl]-6-(3,5-dimethyltriazol-4-yl)pyrrolo[3,2-b]pyridine], the IC50 was less than 1 µM in assay [1], less than 1 µM in assay [2] and less than 10000 nM in assay [3].
As for `[2H]C([2H])(C1CCC(F)(F)CC1)n1ccc2ncc(-c3c(C)nnn3CC)cc21` [P-0360, 1-[dideuterio-(4,4-difluorocyclohexyl)methyl]-6-(3-ethyl-5-methyl-triazol-4-yl)pyrrolo[3,2-b]pyridine], the IC50 in assay [1] is 1 to 10 µM; in assay [2], 10 to 200 µM; in assay [3], less than 10000 nM.
The like results for `Cc1noc(C)c1-c1cnc2c(-c3cnn(C(F)F)c3)cn(C(C)c3ccccn3)c2c1` (stereo not drawn) [P-0361, 4-[3-[1-(difluoromethyl)pyrazol-4-yl]-1-[1-(2-pyridyl)ethyl]pyrrolo[3,2-b]pyridin-6-yl]-3,5-dimethyl-isoxazole] were, in that order, less than 1 µM, less than 1 µM and less than 10000 nM.
The like results for `[2H]C([2H])(C1CCC(F)(F)CC1)n1cc(-c2cnn(C(=O)OC(C)(C)C)c2)c2ncc(-c3c(C)noc3C)cc21` [P-0362, tert-butyl 4-[1-[dideuterio-(4,4-difluorocyclohexyl)methyl]-6-(3,5-dimethylisoxazol-4-yl)pyrrolo[3,2-b]pyridin-3-yl]pyrazole-1-carboxylate] were, in that order, less than 1 µM, less than 1 µM and less than 10000 nM.
For `[2H]C([2H])(C1CCC(F)(F)CC1)n1cc(-c2ccc(C(=O)O)cc2)c2ncc(-c3c(C)noc3C)cc21` [P-0363, 4-[1-[dideuterio-(4,4-difluorocyclohexyl)methyl]-6-(3,5-dimethylisoxazol-4-yl)pyrrolo[3,2-b]pyridin-3-yl]benzoic acid] the same measures were less than 1 µM, less than 1 µM and less than 10000 nM.
Turning to `[2H]C([2H])(C1CCC(F)(F)CC1)n1cc(-c2cnc(N)cn2)c2ncc(-c3c(C)noc3C)cc21` [P-0364, 5-[1-[dideuterio-(4,4-difluorocyclohexyl)methyl]-6-(3,5-dimethylisoxazol-4-yl)pyrrolo[3,2-b]pyridin-3-yl]pyrazin-2-amine], the IC50 in assay [1] is less than 1 µM; in assay [2], less than 1 µM; in assay [3], less than 10000 nM.
For `Cc1noc(C)c1-c1cnc2c(-c3cnn(CC(F)(F)F)c3)cn(Cc3ccc(Cl)cc3)c2c1` [P-0365, 4-[1-[(4-chlorophenyl)methyl]-3-[1-(2,2,2-trifluoroethyl)pyrazol-4-yl]pyrrolo[3,2-b]pyridin-6-yl]-3,5-dimethyl-isoxazole], the figures for the IC50 in assay [1], in assay [2] and in assay [3] were less than 1 µM, less than 1 µM and less than 10000 nM, respectively.
Regarding `Cc1noc(C)c1-c1cnc2c(-c3cnn(CC(F)(F)F)c3)cn(Cc3ccc(F)cc3)c2c1` [P-0366, 4-[1-[(4-fluorophenyl)methyl]-3-[l-(2,2,2-trifluoroethyl)pyrazol-4-yl]pyrrolo[3,2-b]pyridin-6-yl]-3,5-dimethyl-isoxazole], the results for the IC50 in assay [1], in assay [2] and in assay [3] were less than 1 µM, less than 1 µM and less than 10000 nM, respectively.
Take `Cc1noc(C)c1-c1cnc2c(-c3ccc(C(=O)O)cc3)cn(CC3(F)CCCCC3)c2c1` [P-0367, 4-[6-(3,5-dimethylisoxazol-4-yl)-1-[(1-fluorocyclohexyl)methyl]pyrrolo[3,2-b]pyridin-3-yl]benzoic acid]: the IC50 in assay [1] was less than 1 µM; in assay [2] it was less than 1 µM; in assay [3] it was less than 10000 nM.
Take `Cc1onc(N)c1-c1cnc2c(-c3cnn(CC(F)(F)F)c3)cn(CC3CCC(F)(F)CC3)c2c1` [P-0368, 4-[1-[(4,4-difluorocyclohexyl)methyl]-3-[1-(2,2,2-trifluoroethyl)pyrazol-4-yl]pyrrolo[3,2-b]pyridin-6-yl]-5-methyl-isoxazol-3-amine]: the results for the IC50 in assay [1], in assay [2] and in assay [3] were less than 1 µM, less than 1 µM and less than 10000 nM, respectively.
In the case of `Cc1nnn(C)c1-c1cnc2c(-c3ccc(C(=O)O)cc3)cn(CC3(F)CCC(F)(F)CC3)c2c1` [P-0373, 4-[6-(3,5-dimethyltriazol-4-yl)-1-[(1,4,4-trifluorocyclohexyl)methyl]pyrrolo[3,2-b]pyridin-3-yl]benzoic acid], the results for the IC50 in assay [1], in assay [2] and in assay [3] were less than 1 µM, less than 1 µM and less than 10000 nM, respectively.
With `Cc1noc(C)c1-c1cnc2c(-c3ccc(C(=O)OC(C)(C)C)cc3)cn(S(=O)(=O)c3ccccc3)c2c1` [P-0374, tert-butyl 4-[1-(benzenesulfonyl)-6-(3,5-dimethylisoxazol-4-yl)pyrrolo[3,2-b]pyridin-3-yl]benzoate], the IC50 is 1 to 10 µM in assay [1], 10 to 200 µM in assay [2] and less than 10000 nM in assay [3].
For `Cc1noc(C)c1-c1cnc2c(-c3ccc(C(=O)O)cc3)cn(Cc3ccccc3)c2c1` [P-0375, 4-[1-benzyl-6-(3,5-dimethylisoxazol-4-yl)pyrrolo[3,2-b]pyridin-3-yl]benzoic acid] the same measures were less than 1 µM, less than 1 µM and less than 10000 nM.
In the case of `Cc1noc(C)c1-c1cnc2c(-c3cnn(CC(F)(F)F)c3)cn(Cc3ccccn3)c2c1` [P-0376, 3,5-dimethyl-4-[1-(2-pyridylmethyl)-3-[1-(2,2,2-trifluoroethyl)pyrazol-4-yl]pyrrolo[3,2-b]pyridin-6-yl]isoxazole], the IC50 in assay [1] is less than 1 µM; in assay [2] it was less than 1 µM; in assay [3], less than 10000 nM.
For `Cc1nnn(C)c1-c1cnc2c(-c3ccc(C(=O)O)cc3)cn(CC3CCC(F)(F)CC3)c2c1` [P-0377, 4-[1-[(4,4-difluorocyclohexyl)methyl]-6-(3,5-dimethyltriazol-4-yl)pyrrolo[3,2-b]pyridin-3-yl]benzoic acid], the IC50 was less than 1 µM in assay [1], less than 1 µM in assay [2] and less than 10000 nM in assay [3].
Turning to `CNS(=O)(=O)c1ccc(-c2cn(CC3(F)CCCCC3)c3cc(-c4c(C)noc4C)cnc23)cc1` [P-0378, 4-[6-(3,5-dimethylisoxazol-4-yl)-1-[(1-fluorocyclohexyl)methyl]pyrrolo[3,2-b]pyridin-3-yl]-N-methyl-benzenesulfonamide], the IC50 in assay [1] is less than 1 µM; in assay [2], less than 1 µM; in assay [3], less than 10000 nM.
`Cc1noc(C)c1-c1cnc2c(-c3ccc(S(N)(=O)=O)cc3)cn(CC3(F)CCCCC3)c2c1` [P-0379, 4-[6-(3,5-dimethylisoxazol-4-yl)-1-[(1-fluorocyclohexyl)methyl]pyrrolo[3,2-b]pyridin-3-yl]benzenesulfonamide]: the half-maximal inhibitory concentration (IC50) in assay [1] is less than 1 µM; in assay [2], less than 1 µM; in assay [3] it was less than 10000 nM.

For the origin of these results see patent US10519177B2, “Heterocyclic compounds and uses thereof” (Plexxikon Inc., priority 2013, dated 2019).
